Data from PMC12465524, “Cache: Utilizing ultra-large library screening in Rosetta to identify novel binders of the WD-repeat domain of Leucine-Rich Repeat Kinase 2” (Journal of Cheminformatics, 2025).

Assays:
[1] = biological target: T1, Leucine-Rich Repeat Kinase 2 (LRRK2) WDR40 domain (Homo sapiens, UniProt Q5S007); test: SPR (not confirmed by orthogonal assays); type: binding
T1 construct: WDR40 domain
T1 sequence (Q5S007 2142-2527 limits assumed): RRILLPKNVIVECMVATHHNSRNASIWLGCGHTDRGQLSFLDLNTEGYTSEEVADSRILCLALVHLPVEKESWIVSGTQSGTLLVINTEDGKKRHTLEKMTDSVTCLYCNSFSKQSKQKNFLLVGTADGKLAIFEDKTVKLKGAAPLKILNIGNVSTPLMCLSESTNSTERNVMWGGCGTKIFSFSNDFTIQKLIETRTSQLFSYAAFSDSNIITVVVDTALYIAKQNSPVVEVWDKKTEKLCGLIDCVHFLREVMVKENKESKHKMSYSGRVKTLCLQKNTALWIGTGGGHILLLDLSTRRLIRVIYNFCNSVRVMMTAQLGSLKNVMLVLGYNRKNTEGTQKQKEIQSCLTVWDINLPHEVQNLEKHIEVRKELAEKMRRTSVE

[2] = biological target: T1, Leucine-Rich Repeat Kinase 2 (LRRK2) WDR40 domain; test: SPR; weak DSF stabilization (ΔTm […] °C); type: binding

Row | Kd [1] [µM] | Kd [2] [µM] | SMILES
1 | 59 |  | Cn1nnc(-c2ccccc2)c1CNc1cccc(-n2cnnn2)c1 [A, N-[(1-methyl-4-phenyl-1 H-1,2,3-triazol-5-yl)methyl]-3-(1 H-1,2,3,4-tetrazol-1-yl)-aniline]
2 | 35 |  | O=c1[nH]c2ccc(CNc3cccc(-n4cnnn4)c3)cc2[nH]1 [B, compound B]
3 |  | 100 | CSc1ccc(CNc2cccc(-n3cnnn3)c2)cc1 [D, N-[4-(methylsulfanyl)phenyl]methyl-3-(1 H-1,2,3,4-tetrazol-1-yl)aniline]
